This data set can be described thus: Density of the oseltamivir phosphate active ingredient before densification (pharmacotechnical tests). Type of data set: physicochemical. The conditions noted are these: active ingredient as received, without densification.

Regarding `CCOC(=O)C1=C[C@@H](OC(CC)CC)[C@H](NC(C)=O)[C@@H](N)C1` [oseltamivir phosphate], the density result is on record as “approximately 0.1 g/cm^3”.
